SMILES strings stand for the structures. Where a name gives a salt, the structure may show the parent alone.

Broadly, the Ki is the dissociation constant of the complex between target and ligand, obtained from inhibition or displacement.

The target in the first assay is T1, purified human Factor XIa (Homo sapiens, UniProt P03951).
T1 construct: purchased Haematologic Technologies
T1 sequence (P03951 19-387): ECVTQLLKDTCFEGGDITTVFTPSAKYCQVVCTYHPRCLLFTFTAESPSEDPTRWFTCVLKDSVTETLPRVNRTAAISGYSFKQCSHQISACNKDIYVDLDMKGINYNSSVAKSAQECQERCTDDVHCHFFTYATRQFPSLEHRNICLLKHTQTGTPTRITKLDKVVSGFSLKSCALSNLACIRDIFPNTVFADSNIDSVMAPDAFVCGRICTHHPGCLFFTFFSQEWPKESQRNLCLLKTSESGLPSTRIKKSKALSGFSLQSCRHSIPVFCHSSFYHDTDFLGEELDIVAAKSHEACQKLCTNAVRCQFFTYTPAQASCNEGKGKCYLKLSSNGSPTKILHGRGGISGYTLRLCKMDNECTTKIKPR
T1 sequence (P03951 388-625): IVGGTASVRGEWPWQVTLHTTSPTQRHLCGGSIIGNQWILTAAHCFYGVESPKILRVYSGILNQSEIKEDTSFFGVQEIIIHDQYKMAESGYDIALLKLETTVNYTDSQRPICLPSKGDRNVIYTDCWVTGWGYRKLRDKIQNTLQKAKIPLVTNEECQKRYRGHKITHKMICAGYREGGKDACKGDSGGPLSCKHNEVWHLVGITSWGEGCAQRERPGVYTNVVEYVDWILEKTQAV
Description: Factor XIa assay (chromogenic substrate S-2366 hydrolysis, Ki).
Conditions: not given
The class given is biochemical. As for the experimental part:
The effectiveness of compounds of the present invention as inhibitors of the coagulation factors XIa, VIIa, IXa, Xa, XIIa, plasma kallikrein or thrombin, can be determined using a relevant purified serine protease, respectively, and an appropriate synthetic substrate. The rate of hydrolysis of the chromogenic or fluorogenic substrate by the relevant serine protease was measured both in the absence and presence of compounds of the present invention. […] A decrease in the rate of absorbance or fluorescence change in the presence of inhibitor is indicative of enzyme inhibition. Such methods are known to one skilled in the art. The results of this assay are expressed as the inhibitory constant, Ki.
Values of Ki were determined by allowing the protease to react with the substrate in the presence of the inhibitor. Reactions were allowed to go for periods of 20-180 minutes (depending on the protease) and the velocities (rate of absorbance or fluorescence change versus time) were measured. The following relationships were used to calculate Ki values:
vs/vo=A+((B−A)/1+((IC50/(I)^n))) and […]
Molecule `CCOC(=O)Cc1ccc(NC(=O)[C@H](Cc2ccccc2)NC(=O)CCc2cc(Cl)ccc2-n2cnnn2)cc1` [Example 1, (S)-ethyl 2-(4-(2-(3-(5-chloro-2-(1H-tetrazol-1-yl)phenyl)propan-amideo)-3-phenylpropanamido)phenyl)acetate] yielded a Ki of 140 nM. Same read-out and setting: to `O=C(/C=C/c1c(F)ccc(Cl)c1F)N[C@@H](Cc1ccccc1)C(=O)Nc1ccc(C(=O)O)cc1` [Example 15, 4-{(S)-2-[(E)-3-(3-chloro-2,6-difluoro-phenyl)-acryloylamino]-3-phenyl-propionylamino}-benzoic acid] belongs 291 nM. `C[C@H](NC(=O)/C=C/c1cc(Cl)ccc1-n1cnnn1)C(=O)Nc1ccc(CC(=O)O)cc1` [Example 51, (4-{(S)-2-[(E)-3-(5-chloro-2-tetrazol-1-yl-phenyl)-acryloylamino]-propionylamino}-phenyl)-acetic acid] registered a Ki of 317 nM.

In turn, `O=C(/C=C/c1c(F)ccc(Cl)c1F)N[C@@H](Cc1ccccc1)C(=O)Nc1ccc2cn[nH]c2c1` [Example 57, (E)-3-(3-chloro-2,6-difluoro-phenyl)-N—[(S)-1-(1H-indazol-6-ylcarbamoyl)-2-phenyl-ethyl]-acrylamide] came in with a Ki of 3570 nM. On the same count and under the same terms, to `NCc1ccc(Cl)cc1/C=C/C(=O)N[C@@H](Cc1ccccc1)C(=O)Nc1ccc(C(=O)O)cc1` [Example 83, (S,E)-4-(2-(3-(2-(aminomethyl)-5-chlorophenyl)acrylamido)-3-phenylpropanamido)benzoic acid, TFA salt] belongs 63.9 nM. The same measure, in the same setting: to `COC(=O)c1ccc2nc(NC(=O)[C@H](Cc3ccccc3)NC(=O)/C=C/c3cc(Cl)ccc3-n3cnnn3)nn2c1` [Example 92, (S,E)-methyl 2-(2-(3-(5-chloro-2-(1H-tetrazol-1-yl)phenyl)acrylamido)-3-phenylpropanamido)-[1,2,4]triazolo[1,5-a]pyridine-6-carboxylate] belongs 53.9 nM; to `COC(=O)Nc1ccc2c(c1)CCN(C(=O)[C@H](Cc1ccccc1)NC(=O)/C=C/c1cc(Cl)ccc1-n1cnnn1)C2` [Example 127, (S,E)-methyl 2-(2-(3-(5-chloro-2-(1H-tetrazol-1-yl)phenyl)acrylamido)-3-phenylpropanoyl)-1,2,3,4-tetrahydroisoquinolin-6-ylcarbamate], 7800 nM; to `O=C(/C=C/c1cc(Cl)ccc1-n1cnnn1)N[C@@H](Cc1ccccc1)C(=O)Nc1cccn2c(C(F)(F)F)nnc12` [Example 142, (S,E)-3-(5-chloro-2-(1H-tetrazol-1-yl)phenyl)-N-(1-oxo-3-phenyl-1-(3-(trifluoromethyl)-[1,2,4]-triazolo[4,3-a]pyridin-8-ylamino)propan-2-yl)acrylamide], 3850 nM.

Consider `O=C(N[C@@H](Cc1ccccc1)C(=O)NCCc1cc(Cl)ccc1-n1cnnn1)c1n[nH]c2ccccc12` [Example 149, (S)—N-(1-(5-chloro-2-(1H-tetrazol-1-yl)phenethylamino)-1-oxo-3-phenylpropan-2-yl)-1H-indazole-3-carboxamide], for which the affinity corresponds to a Ki of 6500 nM. Still for that read-out and setting: to `O=C1CNC(=O)c2ccc(C(=O)N[C@@H](Cc3ccccc3)C(=O)NCCc3cc(Cl)ccc3-n3cnnn3)cc2N1` [Example 187, (S)—N-(1-(5-chloro-2-(1H-tetrazol-1-yl)phenethylamino)-1-oxo-3-phenylpropan-2-yl)-2,5-dioxo-2,3,4,5-tetrahydro-1H-benzo[e][1,4]diazepine-8-carboxamide] belongs 9370 nM; to `O=C(/C=C/c1cc(Cl)ccc1-n1cnnn1)N[C@@H](Cc1ccccc1)C(=O)N[C@@H]1CCCCNC1=O` [Example 196], 8320 nM; to `Nc1nc2ccc(C(=O)N[C@@H](Cc3ccccc3)C(=O)NCCc3cc(Cl)ccc3-n3cnnn3)cc2s1` [Example 204, (S)-2-amino-N-(1-(5-chloro-2-(1H-tetrazol-1-yl)phenethylamino)-1-oxo-3-phenylpropan-2-yl)benzo[d]thiazole-6-carboxamide, TFA salt], 27.6 nM. As to `O=C1CSc2cc(C(=O)N[C@@H](Cc3ccccc3)C(=O)NCCc3cc(Cl)ccc3-n3cnnn3)ccc2N1` [Example 206, (S)—N-(1-(5-chloro-2-(1H-tetrazol-1-yl)phenethylamino)-1-oxo-3-phenylpropan-2-yl)-3-oxo-3,4-dihydro-2H-benzo[b][1,4]thiazine-7-carboxamide], the Ki came to 19.5 nM.

The assay is the same for the next values; noted with them: purified human Factor XIa 75-200 pM, substrate S-2366, 50 mM HEPES pH 7.4; read-out: Factor XIa Ki.
On to `Nc1n[nH]c2cc(NC(=O)[C@H](Cc3ccccc3)NC(=O)C[S+]([O-])c3cc(Cl)ccc3-n3cnnn3)ccc12` (single isomer, unassigned; isomer b) [Example 133], for which the inhibitory constant (Ki) came out at 672 nM.

As for `COC(=O)Nc1ccc(NC(=O)[C@H](Cc2ccccc2)NC(=O)/C=C/c2cc(Cl)ccc2-n2cnnn2)c(Cl)c1` [Example 14, (3-chloro-4-{(S)-2-[(E)-3-(5-chloro-2-tetrazol-1-yl-phenyl)-acryloylamino]-3-phenyl-propionylamino}-phenyl)-carbamic acid methyl ester], the Ki turned out to be 2960 nM.

Take `O=C(/C=C/c1cc(Cl)ccc1-n1cnnn1)N[C@@H](Cc1ccccc1)C(=O)Nc1ncc(C(=O)O)s1` [Example 21, 2-{(S)-2-[(E)-3-(5-chloro-2-tetrazol-1-yl-phenyl)-acryloylamino]-3-phenyl-propionylamino}-thiazole-5-carboxylic acid]: the Ki was determined as 105 nM.

Take `O=C(/C=C/c1cc(Cl)ccc1-n1cnnn1)N[C@@H](Cc1ccccc1)C(=O)Nc1ccc2[nH]ncc2c1` [Example 30, (E)-3-(5-chloro-2-tetrazol-1-yl-phenyl)-N—[(S)-1-(1H-indazol-5-ylcarbamoyl)-2-phenyl-ethyl]-acrylamide]: the inhibition constant (Ki) was determined as 12.7 nM. Take `O=C(/C=C/c1cc(Cl)ccc1-n1cnnn1)N[C@@H](Cc1ccccc1)C(=O)Nc1ccc2c(=O)[nH][nH]c(=O)c2c1` [Example 36, (E)-3-(5-chloro-2-tetrazol-1-yl-phenyl)-N—[(S)-1-(1,4-dioxo-1,2,3,4-tetrahydro-phthalazin-6-ylcarbamoyl)-2-phenyl-ethyl]-acrylamide]: the inhibition constant Ki is 33.9 nM. In the case of `O=C(/C=C/c1cc(Cl)ccc1-n1cnnn1)N[C@@H](Cc1cccc(F)c1)C(=O)Nc1ccc(-c2nnn[nH]2)cc1` [Example 43, (E)-3-(5-chloro-2-tetrazol-1-yl-phenyl)-N-{(S)-2-(3-fluoro-phenyl)-1-[4-(1H-tetrazol-5-yl)-phenylcarbamoyl]-ethyl}-acrylamide], the inhibition constant (Ki) came out at 1.61 nM.

On to `CN1CCN(C(=O)C[C@H](NC(=O)/C=C/c2cc(Cl)ccc2-n2cnnn2)C(=O)Nc2ccc(C(=O)O)cc2)CC1` [Example 45, 4-[(S)-2-[(E)-3-(5-chloro-2-tetrazol-1-yl-phenyl)-acryloylamino]-4-(4-methyl-piperazin-1-yl)-4-oxo-butyrylamino]-benzoic acid], for which the Ki worked out at 33.4 nM. Same read-out and setting: to `CC[C@H](NC(=O)/C=C/c1cc(Cl)ccc1-n1cnnn1)C(=O)Nc1ccc(NC(=O)OC)cc1` [Example 50, (4-{(S)-2-[(E)-3-(5-chloro-2-tetrazol-1-yl-phenyl)-acryloylamino]-butyrylamino}-phenyl)-carbamic acid methyl ester] belongs 1120 nM; to `O=C(/C=C/c1cc(Cl)ccc1-n1cnnn1)N[C@@H](Cc1ccccc1)C(=O)Nc1ccc2c(c1)CCNC2` [Example 53, (E)-3-(5-chloro-2-tetrazol-1-yl-phenyl)-N—[(S)-2-phenyl-1-(1,2,3,4-tetrahydro-isoquinolin-6-ylcarbamoyl)-ethyl]-acrylamide], 244 nM; to `O=C(/C=C/c1cc(Cl)ccc1-n1cnnn1)N[C@@H](Cc1ccccc1)C(=O)Nc1nc2ccc(F)cc2s1` [Example 97, (S,E)-3-(5-chloro-2-(1H-tetrazol-1-yl)phenyl)-N-(1-(6-fluorobenzo[d]thiazol-2-ylamino)-1-oxo-3-phenylpropan-2-yl)acrylamide], 533 nM. On the same count and under the same terms, to `O=C(/C=C/c1cc(Cl)ccc1-n1cnnn1)N[C@@H](Cc1ccccc1)C(=O)Nc1ccc(N2CCSCC2)cc1` [Example 99, (S,E)-3-(5-chloro-2-(1H-tetrazol-1-yl)phenyl)-N-(1-oxo-3-phenyl-1-(4-thiomorpholinophenylamino)propan-2-yl)acrylamide, TFA salt] belongs 1480 nM; to `COC(=O)c1ccc(NC(=O)[C@H](Cc2ccccc2)NC(=O)/C=C/c2cc(Cl)ccc2-n2cnnn2)nc1` [Example 103, (S,E)-methyl 6-(2-(3-(5-chloro-2-(1H-tetrazol-1-yl)phenyl)acrylamido)-3-phenylpropanamido)nicotinate, TFA salt], 112 nM. The same measure, in the same setting: to `O=C(/C=C/c1cc(Cl)ccc1-n1cnnn1)N[C@@H](Cc1ccccc1)C(=O)Nc1ccc2c(c1)C(=O)NC2` [Example 129, (S,E)-3-(5-chloro-2-(1H-tetrazol-1-yl)phenyl)-N-(1-oxo-1-(3-oxoisoindolin-5-ylamino)-3-phenylpropan-2-yl)acrylamide] belongs 67.9 nM; to `O=C(/C=C/c1cc(Cl)ccc1-n1cnnn1)N[C@@H](Cc1ccccc1)C(=O)Nc1n[nH]c2ncccc12` [Example 137, (S,E)-N-(1-(1H-pyrazolo[3,4-b]pyridin-3-ylamino)-1-oxo-3-phenylpropan-2-yl)-3-(5-chloro-2-(1H-tetrazol-1-yl)phenyl)acrylamide, TFA salt], 53.9 nM; to `COP(=O)(CCOC(=O)Nc1ccc(NC(=O)[C@H](Cc2ccccc2)NC(=O)/C=C/c2cc(Cl)ccc2-n2cnnn2)cc1)OC` [Example 171, (S,E)-2-(dimethoxyphosphoryl)ethyl 4-(2-(3-(5-chloro-2-(1H-tetrazol-1-yl)phenyl)-acrylamido)-3-phenylpropanamido)phenylcarbamate], 38.1 nM.
